Calls of active or inactive are those of the source. The rule behind the calls is not given here.
Test system: not listed separately
Assay: GFP reporter counter screen, PhoP regulon inhibitors, Salmonella typhi, fluorescence inhibition (AID 2840)
Details: Salmonella typhi GFP reporter counter-screen, fluorescence, 4 h; at 150 µM (top of the series)

SMILES | inhibition
O=C(Nc1ccccc1Cl)N1CCCN(Cc2ccccc2F)C1 | 0.77% (inactive)
O=C1C2=C(Nc3ccccc3SC2c2ccc(I)cc2)c2ccccc21 (stereo unspecified) | 37.4% (inactive)
O=C1C2=C(Nc3ccccc3SC2c2ccccc2C(F)(F)F)c2ccccc21 (stereo unspecified) | 7.85% (inactive)
Fc1ccccc1NC(=S)NCc1ccc(Cl)cc1 | 1.61% (inactive)
S=C(NCc1ccc(Cl)cc1)Nc1cccnc1 | -15.5% (inactive)
S=C(NCc1ccc(Cl)cc1)Nc1ccc(Cl)cc1 | 0.06% (inactive)
COc1ccccc1NC(=O)N1CCCN(Cc2ccccc2F)C1 | 21% (inactive)
O=C1C2=C(Nc3ccccc3SC2c2ccsc2)c2ccccc21 (stereo unspecified) | 13.1% (inactive)
CCOc1ccc(NC(=S)N2CCN(c3cc4c(cc3F)c(=O)c(C(=O)O)cn4CC)CC2)cc1 | 15.7% (inactive)
S=C(NCc1ccc(Cl)cc1)Nc1cccc(Cl)c1 | 21.5% (inactive)
COc1ccc(CNC(=S)Nc2ccncc2)cc1 | 15.2% (inactive)
O=C(Nc1ccccc1)N1CCCN(Cc2ccccc2F)C1 | 14.4% (inactive)
O=C1C2=C(Nc3ccccc3SC2c2ccccc2Cl)c2ccccc21 (stereo unspecified) | 24.5% (inactive)
CCn1cc(C(=O)O)c(=O)c2cc(F)c(N3CCN(C(=S)NCc4ccccc4)CC3)cc21 | 13.2% (inactive)
CCn1cc(C(=O)O)c(=O)c2cc(F)c(N3CCN(C(=S)NC)CC3)cc21 | -11.9% (inactive)
S=C(NCc1ccc(Cl)cc1)Nc1ccc(Br)cc1 | 1.55% (inactive)
S=C(NCc1ccccc1Cl)Nc1ccncc1 | 6.49% (inactive)
COc1cccc(C2Sc3ccccc3NC3=C2C(=O)c2ccccc23)c1 (stereo unspecified) | 14.1% (inactive)
CCn1cc(C(=O)O)c(=O)c2cc(F)c(N3CCN(C(=S)Nc4ccc(Cl)cc4)CC3)cc21 | 39.1% (inactive)
CCn1cc(C(=O)O)c(=O)c2cc(F)c(N3CCN(C(=S)Nc4ccccc4Cl)CC3)cc21 | 17.6% (inactive)
Cc1ccc(NC(=S)NCc2ccc(Cl)cc2)cc1 | 1.23% (inactive)
O=C(NCc1ccccc1)N1CCCN(Cc2ccccc2F)C1 | -5% (inactive)
COc1cccc(NC(=S)NCc2ccc(Cl)cc2)c1 | 2.87% (inactive)
COc1ccc(NC(=S)NCc2ccc(Cl)cc2)cc1 | 8.1% (inactive)
Cc1cccc(NC(=S)NCc2ccc(Cl)cc2)c1 | 3.06% (inactive)
O=C1C2=C(Nc3ccccc3SC2c2ccccc2Br)c2ccccc21 (stereo unspecified) | 9.22% (inactive)
O=C1C2=C(Nc3ccccc3SC2c2cccc(Cl)c2)c2ccccc21 (stereo unspecified) | 14.9% (inactive)
CCn1cc(C(=O)O)c(=O)c2cc(F)c(N3CCN(C(=S)Nc4ccccc4C)CC3)cc21 | 22% (inactive)

Test system: Salmonella typhi GFP reporter counter-screen, fluorescence, 4 h
Assay: as above
Details: not given

SMILES | IC50 [µM]
CCn1cc(C(=O)O)c(=O)c2cc(F)c(N3CCN(C(=S)NC(=O)c4ccccc4Cl)CC3)cc21 | < 0.15
O=C(O)c1cn(-c2ccc(F)cc2)c2cc(Cl)c(F)cc2c1=O | < 0.15
O=C1C2=C(Nc3ccccc3SC2c2ccc(C(F)(F)F)cc2)c2ccccc21 (stereo unspecified) | 107
S=C(NCc1ccc(Cl)cc1)Nc1ccncc1 | < 0.15
O=c1c2ccccc2[nH]c2ccc(F)cc12 | < 0.15
CCn1cc(C(=O)O)c(=O)c2cc(F)c(N3CCN(C(=S)Nc4ccccc4C(F)(F)F)CC3)cc21 | 104
O=C(Nc1nnc(-c2cccs2)o1)c1cccc(C(F)(F)F)c1 | < 0.15
COc1ccccc1Nc1nc(NCc2ccco2)c2ccccc2n1 | < 0.15
O=C1C2=C(Nc3ccccc3SC2c2ccco2)c2ccccc21 (stereo unspecified) | < 0.15
N#C/C(=C\c1ccc[nH]1)C(=O)NC1CC1 | < 0.15
O=C1c2ccccc2C2=Nc3ccccc3SC(c3ccccc3F)C12 (stereo unspecified) | < 0.15
Cc1ccc(Nc2cc(C)c3c(O)cccc3n2)cc1C | < 0.15
COc1c(N2CCN(C(=S)NCc3ccccc3)C(C)C2)c(F)cc2c(=O)c(C(=O)O)cn(C3CC3)c12 (stereo unspecified) | < 0.15
C1=C(CCNc2ncnc3c2[nH]c2ccccc23)CCCC1 | < 0.15
CCCCCNC(=O)c1cn(CC)c2cc(N3CCN(C)CC3)c(F)cc2c1=O | < 0.15
CN(C)CCCN(C(=O)CCc1ccccc1)c1nc2ccc(Cl)cc2s1 | < 0.15
CSc1nc2cc(Oc3cccc(Cl)c3Cl)c(Cl)cc2[nH]1 | < 0.15
Cc1ccc(CN2CCCN(C(=O)Nc3ccc(Cl)cc3)C2)cc1 | 99.8
O=[N+]([O-])c1ccc(CNC2CCCc3ccccc32)cc1 (stereo unspecified) | < 0.15
O=C(Nc1ccc(Cl)cc1)N1CCCN(Cc2ccccc2F)C1 | < 0.15
CN1CCN(C2=Cc3cc(Cl)ccc3Sc3cc(F)ccc32)CC1 | < 0.15
CCn1cc(C(=O)O)c(=O)c2cc(F)c(N3CCN(C(=S)NC(=O)c4ccccc4F)CC3)cc21 | < 0.15
CCCCn1c(NS(=O)(=O)c2ccc(C)cc2)c(S(=O)(=O)c2ccccc2)c2nc3ccccc3nc21 | < 0.15
CCCCn1c(NS(=O)(=O)c2ccccc2)c(S(=O)(=O)c2ccc(C)cc2)c2nc3ccccc3nc21 | < 0.15
O=S(=O)(Nc1c(S(=O)(=O)c2ccccc2)c2nc3ccccc3nc2n1C1CCCCC1)c1ccccc1 | < 0.15
O=C(Nc1cccnc1)c1cc(Br)c(Br)s1 | < 0.15
COc1ccc(NC(=O)c2cc(Br)c(Br)s2)cn1 | < 0.15
CN1CCc2nc(SCC(=O)Nc3cccc(F)c3)c(C#N)c(-c3cccs3)c2C1 | < 0.15
